Source: ChEMBL document CHEMBL1124615, “A novel prodrug of an impermeant inhibitor of 3-deoxy-D-manno-2-octulosonate cytidylyltransferase has antibacterial activity” (J Med Chem, 1989)

Experiments:
[1] = In vitro inhibition of (3-deoxy-D-manno-2-octulosonate cytidylyltransferase) CMP-KDO synthetase a key enzyme in the biosynthesis of the lipopolysaccharide (LPS) of Gram-negative bacteria; parameters: species or system Escherichia coli
[2] = Compound was tested for the toxic effect in mice after intraperitoneal injection; assay type: ADME, organism-based; conditions: mouse, in vivo, ip
[3] = In vitro inhibition of 3-deoxy-D-manno-2-octulosonate cytidylyltransferase (CMP-KDO) synthetase a key enzyme in the biosynthesis of the lipopolysaccharide (LPS) of Gram-negative bacteria

| SMILES | LD50 [2] [mg/kg] | also measured |
| --- | --- | --- |
| O=C(O)[C@@H]1C[C@@H](O)[C@@H](O)[C@@H]([C@H](O)CO)O1 |  | Ki [1]: 12 µM |
| c1cc2c3c(cccc3c1)SC2 | ~640 |  |
| CSSc1cccc2cccc(COC(C)=O)c12 | > 1000 |  |
| NC[C@@H](O)[C@H]1O[C@H](C(=O)O)C[C@@H](O)[C@H]1O |  | Ki [3]: 4 µM |
